# According to a melting point compilation (Tetko et al.):
row,melting point [°C],SMILES
1,21.9,CCCCCCCCCCc1cc(-c2cc(-c3ccccc3)c3ccccc3n2)sc1-c1sc(-c2cc(-c3ccccc3)c3ccccc3n2)cc1CCCCCCCCCC
2,94 to 95,Cn1cc(Br)c(CO)n1
3,112,CCOc1cc(C(=O)O)cc(OCC)c1OCC
4,148 to 150,Cc1ccc(Cl)c(C(=O)O)c1
5,53,COC(=O)c1ccc2c(c1)OCO2
6,149,COc1ccc(C(=O)O)c(C(F)(F)F)c1
7,245 to 248,O=C1C=CC(=O)N1c1ccccc1N1C(=O)C=CC1=O
8,62,O=Cc1ccc(F)cc1Cl
9,106,CCOC(=O)C1=C(CBr)NC(C)=C(C(=O)OC)C1c1cccc([N+](=O)[O-])c1 (configuration not stated)
10,280,N#C/C(=N\Nc1ccc(Br)cc1)c1nc2ccccc2s1
11,68,CC(=O)C=CC=Cc1ccccc1
12,245,Nc1ncnc2c1ncn2Cc1c(F)cccc1Cl
13,154 to 155,O=C(Cl)c1sc(Br)c2c1OCCO2
14,47.5 to 55.5,O=C(Oc1c(F)c(F)c(F)c(F)c1F)c1ccncc1
15,271,COc1ccccc1-n1[nH]cc2c(=O)ncnc1-2
16,18,CCc1ccccc1O
17,54,C(=Nc1ccccc1)c1ccccc1
18,152,CC(CCC(/C=N/NC(N)=O)C(C)C)C(=O)O (configuration not stated)
19,143,CC(=O)c1c2c(c(C(C)=O)c3c1CCCN3)NCCC2
20,223 to 225,O=S(=O)(O)CCNC(CO)(CO)CO
21,252 to 256,Cn1cccc1-c1nnc(S)n1-c1ccc(Cl)cc1Cl
22,153,Cc1c(Br)cc([N+](=O)[O-])c(N)c1C
23,285,O=c1n(-c2ccccc2)c(=O)n(-c2ccccc2)c(=O)n1-c1ccccc1

row,melting point [°C],SMILES
1,185 to 186,COC(=O)CCC(C)C1CCC2C3C(OC(C)=O)CC4CC(OC(C)=O)CCC4(C)C3CCC12C (configuration not stated)
2,189 to 198,N#CC=P(c1ccccc1)(c1ccccc1)c1ccccc1
3,167 to 168,O=C(O)c1ccnc(N2CCCCC2)c1
4,48 to 50,CCCc1ccc(C(C)=NO)cc1
5,269 to 270,CCOC(=O)c1cn[nH]c1NC(=O)Nc1ccc(Cl)c(Cl)c1
6,135,O=C(O)c1cc(F)ccc1[N+](=O)[O-]
7,159 to 161,O=C(NC(=S)Nc1ccccc1)c1ccccc1
8,139 to 140,Cn1nc(-c2cccs2)cc1N
9,71,CC(=O)OC1OC(=O)c2ccccc21 (configuration not stated)
10,-15,CCCCCCCCCCC(=O)OCC
11,257 to 260,O=C(O)c1cc2cc(Br)ccc2o1
12,231,O=C(O)c1ccc(C(=O)O)c(C(=O)O)c1
13,106,Cc1cc(C(=O)NNCc2ccccc2)no1
14,-11,CC(C)(C)c1ccc(S)cc1
15,111,Cc1ccc(OC(=O)C(C)(c2ccccc2)c2ccccc2)cc1
16,68,CCCCCCCCCCCC(=O)NC
17,141,O=c1ccoc2ccc(Br)cc12
18,335,COc1ccc([N+](=O)[O-])cc1NN=C1C(=O)C(C(=O)Nc2cccc([N+](=O)[O-])c2)=Cc2ccccc21
19,237 to 238,O=C(O)c1cn(C2CCCCC2)c2ccccc2c1=O
20,250,COc1cc2nc[nH]c(=O)c2cc1OC
21,97,CC(C)n1cc(-c2ccc(F)cc2)c2ccccc21
22,243,Cc1cc2c(C#N)c3ccc4ccccc4n3c(=O)c2c(C)n1

# Further lines, the compound ahead of its results:
row,SMILES,melting point [°C]
1,CN(C)CC(=O)N1c2ccccc2Sc2ccccc21,144
2,N#Cc1ccccc1CBr,72
3,CCOC(=O)c1c(N)sc(C)c1C,90 to 91
4,O=C(CCl)Nc1ccc(Cl)cc1Cl,105 to 108
5,COC(=O)c1ccc(OCc2ccccc2)cc1,98
6,CCCCC(O)(CCCC)CCCC,20
7,CC(=O)COc1c([N+](=O)[O-])ccc(F)c1F,40 to 45
8,CCNC(N)=O,92.5
9,S=C(Nc1ccccc1)C(=S)Nc1ccccc1,134 to 135
10,Cc1cc(C)c2c(=O)n(C)c(S)nc2n1,234 to 236
11,Nc1cccnc1Oc1ccccc1F,87 to 89
12,c1ccc2c(c1)CCc1ccccc1N2C1CN2CCC1CC2 (configuration not stated),150
13,FC1=C(F)C(F)(F)C1(F)F,-60
14,Cc1ccc(NC(N)=O)cc1,178 to 181
15,Oc1nc(CCc2ccccc2)nn1-c1ccccc1,182
16,N#CCCCCCCCCC#N,7
17,NC(=O)c1c(F)ccc(Cl)c1F,135
18,O=S(=O)(Cl)c1sc(Cl)cc1Br,34 to 36
19,O=C1c2cccc(O)c2C(=O)c2c(O)cc(CO)cc21,224
20,CC(C)C[C@H](N)[C@@H](O)CC(=O)O,209
21,CC(CCC(O)(Cl)Cl)C1CCC2C3C(O)CC4CC(O)CCC4(C)C3CC(O)C12C (configuration not stated),162 to 170

row,SMILES,melting point [°C]
1,NCCNC(=O)CCn1cnc2c(N)ncnc21,196
2,O=C(Cl)c1cccc(S(=O)(=O)Cl)c1,18 to 20
3,COc1cccc2sc(N)nc12,156
4,CC(=O)c1cc(C)c(Br)cc1O,88
5,COP(=O)(OC)C(O)C(Cl)(Cl)Cl (configuration not stated),80
6,CN1CCOc2cc(S(=O)(=O)Cl)cnc21,130 to 132
7,Nc1cc(Cl)c(Cl)c(Cl)c1Cl,118 to 119
8,CC(C)(C)OC(=O)N1Cc2[nH]c3ccccc3c2C[C@H]1C(=O)O,286 to 291
9,N=C(N)N/N=C(\C(=S)Nc1ccc(Br)cc1)c1ccccc1,210 to 211
10,NC(=O)c1ccc(Cl)nc1,215
11,CC(=O)n1c(-c2ccccc2)c(O)c2ccc([N+](=O)[O-])cc21,179
12,Cc1cc(Br)ccc1C#N,64
13,C/C(=N\NC(N)=O)C(=O)C(C)Cc1ccccc1 (configuration not stated),112
14,O=C1/C(=C/c2ccc([N+](=O)[O-])cc2)SC(=S)N1CN(CCCl)CCCl,284
15,CCOC(=O)C1=C(NC(=O)CCl)Oc2c(c(=O)oc3ccccc23)C1c1ccc(Br)cc1 (configuration not stated),158
16,Clc1cc2ccccc2c2ccccc12,46 to 50
17,Clc1ccccc1-c1ccccc1Cl,61.5
18,COc1cc2nc(Cl)nc(Cl)c2cc1OC,177
19,O=S(=O)(O)c1ccc2ccc(S(=O)(=O)O)cc2c1,199
20,O=C1CCCc2c(O)cccc21,207 to 210
21,C=C=C,-136

row,SMILES,melting point [°C]
1,C=CC1C2=CCOC(=O)C2=COC1OC1OC(CO)C(O)C(O)C1O (configuration not stated),191
2,O=S(=O)(Cl)c1csc2ccccc12,86 to 88
3,OCc1ccccc1C(c1ccc(O)cc1)c1ccc(O)cc1,202
4,Brc1ccc(-c2cccnc2)nc1,77
5,CC(=O)Oc1cc(OC(C)=O)c2c(=O)c(OC(C)=O)c(-c3ccc(OCc4ccccc4)cc3)oc2c1,150
6,O=C(O)c1cc(-c2ccco2)[nH]n1,220
7,C=C(Cl)c1ccccc1,-23
8,CC1CCC(C)C(C)C1C (configuration not stated),-75
9,ICc1ccccc1,24.5
10,N#CCCCC#N,-29
11,CC(=O)Nc1ccccc1CCN(CCc1ccccc1NC(C)=O)N=O,172
12,CN1CSCSC1,65
13,Nc1ccc(Oc2ccc(Br)cc2)nc1,107 to 109
14,O[C@@H]1CCCC[C@H]1NCc1ccccc1 (relative stereo),69 to 72
15,CC(CCC(=O)O)C1CCC2C3C(=O)CC4CC(=O)CCC4(C)C3CC(=O)C12C (configuration not stated),237
16,CC12CCC3c4ccc(OC(=O)N(CCCl)CCCl)cc4CCC3C1CCC2O (configuration not stated),104
17,O=C(O)c1cnc(Cl)c(Cl)c1,163 to 168
18,CC(=O)NCC(=O)O,207 to 209
19,O=C(O)C1c2ccccc2C(=O)N(Cc2ccc(F)cc2)C1c1ccncc1 (configuration not stated),243 to 245
20,O=[N+]([O-])C(Br)(Br)Br,10
21,N#Cc1ccc(O)c(O)c1,154 to 156

row,SMILES,melting point [°C]
1,COc1cc(C(=O)O)c(OC)c([N+](=O)[O-])c1,180 to 184
2,Cc1o[nH]c(=O)c1CC(N)C(=O)O (racemic),240 to 252
3,COc1ccc(CCO)cc1OC,46
4,O=[N+]([O-])c1ccc(NS(=O)(=O)c2ccc(Cl)c(C(F)(F)F)c2)c(Cl)c1,170
5,Cc1cc2ccccc2c(-c2ccccc2)n1,87
6,FC(F)(F)c1cc(Cl)c2cc(CBr)ccc2n1,119 to 123
7,COC(=O)C=P(c1ccccc1)(c1ccccc1)c1ccccc1,164 to 169
8,[O-][P+](c1ccccc1)(c1ccccc1)C1C=C(c2ccccc2)OC(c2ccccc2)=C1,176
9,COc1ccc(C=O)cn1,46 to 54
10,CC(C)(C)C(Br)Br,14
11,CCOC(=O)CSc1c(C)[nH]c2ccccc12,72 to 75
12,CC(C)(C)[Si](Cl)(Cl)Cl,98
13,Nc1ccc(Nc2ccc(N)c3c2C(=O)c2ccccc2C3=O)c2c1C(=O)c1ccccc1C2=O,275
14,Cn1c(=O)on(-c2ccc(Cl)c(Cl)c2)c1=O,123
15,O=C(O)c1cccc(-n2cccn2)c1,154 to 156
16,CC(=O)SC1CC2=CC(=O)CC(SC(C)=O)C2(C)C2CCC3(C)C(CCC3(C)O)C12 (configuration not stated),206
17,CCCN(CCC)c1c([N+](=O)[O-])cc(C(F)(F)F)cc1[N+](=O)[O-],49
18,O=C(CCl)Nc1cccc(C(F)(F)F)c1,62.5 to 64
19,O=C(O)c1cc(Cl)ccc1N=NC1SC(=S)NC1=O (configuration not stated),210 to 212
